The record followed here is patent publication US5179091A, “Chalcones” (Adir et Compagnie, priority 1990, dated 1993).

The subject of assay [1] is rat brain homogenates. Description: Inhibition of lipid peroxidation induced by the Fe++/ascorbate system. The format is biochemical. Particulars: concentration of 10^-5 M, Fe++/ascorbate (10 μM/250 μM). How it is done:
A study of the capacity of the compounds of the invention to trap free OH. radicals was studied on rat brain homogenates on the other hand with respect to peroxidation induced by the Fe++/ascorbate (10 μM/250 μM) system. The rat brain homogenates are placed in the presence or absence of the test compounds for 60 minutes at 37° C. The intensity of lipid peroxidation in the presence and in the absence of the compounds of the invention is determined by the substances reacting with thiobarbituric acid, expressed in mmol of malondialdehyde, by a method derived from that of […], Biochem. Med. 1976, 15, 212-216). The methodology is identical, with the exception of the addition to the homogenate of the Fe++/ascorbate radical-inducing system.

The next assay addresses T1, lipoxygenase (Homo sapiens, UniProt P09917).
T1 construct: endogenous in cells
T1 sequence (P09917 1-674): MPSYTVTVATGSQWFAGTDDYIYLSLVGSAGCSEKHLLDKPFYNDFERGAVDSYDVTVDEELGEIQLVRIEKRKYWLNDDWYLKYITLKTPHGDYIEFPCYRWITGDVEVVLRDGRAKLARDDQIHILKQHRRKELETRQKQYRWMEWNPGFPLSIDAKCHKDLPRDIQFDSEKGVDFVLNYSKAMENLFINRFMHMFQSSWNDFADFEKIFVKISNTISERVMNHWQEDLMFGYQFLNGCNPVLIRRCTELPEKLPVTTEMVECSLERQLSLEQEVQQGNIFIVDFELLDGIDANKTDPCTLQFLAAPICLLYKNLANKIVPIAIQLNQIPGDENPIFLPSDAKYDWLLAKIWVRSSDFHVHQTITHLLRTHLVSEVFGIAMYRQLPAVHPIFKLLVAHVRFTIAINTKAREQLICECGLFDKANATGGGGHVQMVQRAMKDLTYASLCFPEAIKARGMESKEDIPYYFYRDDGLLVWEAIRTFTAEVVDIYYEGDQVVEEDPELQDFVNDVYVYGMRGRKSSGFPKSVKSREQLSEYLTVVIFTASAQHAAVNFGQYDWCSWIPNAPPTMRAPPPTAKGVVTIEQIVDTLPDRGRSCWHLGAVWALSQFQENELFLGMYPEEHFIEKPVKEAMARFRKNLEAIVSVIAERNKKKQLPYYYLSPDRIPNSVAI
As to the kind of experiment: Inhibition of lipoxygenase activity, LTB4 measured by radioimmunoassay. The format is cell-based. To be noted: concentration of 10^-5 M, washed human polynuclear cells activated by calcium; read-out: inhibition of lipoxygenase action (LTB4 produced). How it is done: The lipoxygenase activity is measured using washed human polynuclear cells, in the presence and absence of the claimed compounds after activation by calcium (A 23/87). The leukotriene B4 (LTB4) produced is measured by radioimmunoassay (Gresele, P. et al. Biochem. Biophys. Res. Comm. 1986, 137, 334-342).

The subject of the next assay is native LDL. Description: Level of LDL oxidation by Cu++, oxidation products assayed by FPLC. The format is biochemical. Particulars: relative to probucol (i=1). How it is done:
Under these conditions, free radicals are generated by Cu++ in a medium containing native LDL in the presence or absence of the test compounds. The reaction is stopped by adding 2,6-di-tert-butyl-4-methylphenol and EDTA to the reaction medium and the oxidation products are assayed by FPLC.
D being the height of the peak of fraction 27/28 of the chromatogram; the sum of the oxidized fractions 27/28 and 31/32 is equal to 100.

Assay [2] has as its system rat brain homogenates. Description: Inhibition of spontaneous lipid peroxidation (thiobarbituric acid reacting substances). The format is biochemical. Particulars: concentration of 10^-5 M, 60 minutes at 37° C. How it is done:
A study of the capacity of the compounds of the invention to trap free OH. radicals was studied on rat brain homogenates on the one hand with respect to the spontaneous peroxidation of lipids, The rat brain homogenates are placed in the presence or absence of the test compounds for 60 minutes at 37° C. The intensity of lipid peroxidation in the presence and in the absence of the compounds of the invention is determined by the substances reacting with thiobarbituric acid, expressed in mmol of malondialdehyde, by a method derived from that of […], Biochem. Med. 1976, 15, 212-216).

Assay [3] in a line: Inhibition of formation of conjugated dienes formed by free-radical activity. The format is biochemical. Particulars: 10^-5 M concentration, linoleic acid emulsion, Fe2+/Fe3+ mixture. From the text: This methodology consists in generating free OH- radicals in an emulsion of linoleic acid, by means of a system consisting of an Fe^2+ /Fe^3+ mixture.
The test system of another assay is Human red cells. As to the kind of experiment: AAPH-induced hemolysis. The format is cell-based. Particulars: Erythrocyte, 0.5 h, concentration of 10^-5 M, 30 minutes at 37° C.

The term inhibition denotes the share of the control response that was lost under treatment. As to `CC(C)(C)c1cc(C=C2C(=O)c3cc4oc(=O)[nH]c4cc3C2c2ccccc2)cc(C(C)(C)C)c1O` (stereo not drawn) [Example 35, 2,3-dihydro-5-phenyl-6-(3',5'-di-tert-butyl-4'-hydroxybenzylidene)cyclopenta[f]benzoxazole-2,7-dione], the “inhibition of induced peroxidation” value with rat brain homogenates [1] is listed as about 50%. Besides, the inhibition at 10 µM on lipoxygenase is about 60%. For the same compound, in the assay with native LDL, the “LDL oxidation: oxidized fraction 27/28 of the chromatogram” value was “oxidized fraction 27/28 disappears”. Further, the “inhibition of spontaneous peroxidation” value in the assay on rat brain homogenates [2] was “approximately 50%”. `Cn1c(=O)oc2cc(C(=O)C=Cc3cc(C(C)(C)C)c(O)c(C(C)(C)C)c3)ccc21` [Example 5, 6-(3',5'-di-tert-butyl-4'-hydroxycinnamoyl)-3-methylbenzoxazolinone]: the inhibition at 10 µM on lipoxygenase was about 60%. `CC1C(=Cc2cc(C(C)(C)C)c(O)c(C(C)(C)C)c2)C(=O)c2cc3oc(=O)[nH]c3cc21` (stereo not drawn) [Example 33, 2,3-dihydro-5-methyl-6-(3',5'-di-tert-butyl-4'-hydroxybenzylidene)cyclopenta[f]benzoxa-zone-2,6-dione]: the “inhibition of induced peroxidation” value in the assay on rat brain homogenates [1] is about 50%. Besides, the “LDL oxidation: oxidized fraction 27/28 of the chromatogram” value in the assay with native LDL was “oxidized fraction 27/28 disappears”. Further, the “inhibition of spontaneous peroxidation” value with rat brain homogenates [2] is listed as “approximately 50%”.

Turning to `CC1CC(=Cc2cc(C(C)(C)C)c(O)c(C(C)(C)C)c2)C(=O)c2cc3c(cc21)oc(=O)n3C` (stereo not drawn) [Example 28, 2,3-dihydro-3,8-dimethyl-6-(3',5'-di-tert-butyl-4'-hydroxybenzylidene)cyclohexa[f]benzoxazone-2,5-dione], the “LDL oxidation: oxidized fraction 27/28 of the chromatogram” value in the assay on native LDL is “oxidized fraction 27/28 disappears”. Regarding `Cn1c(=O)oc2cc3c(cc21)C(c1ccccc1)C(=Cc1cc(C(C)(C)C)c(O)c(C(C)(C)C)c1)C3=O` (stereo not drawn) [Example 36, 2,3-dihydro-3-methyl-5-phenyl-6-(3',5'-di-tert-butyl-4'-hydroxybenzylidene)cyclopenta[f]benzoxazole-2,7-dione], the “inhibition of induced peroxidation” value with rat brain homogenates [1] is listed as about 50%. Further, the inhibition at 10 µM at lipoxygenase is about 60%. Moreover, the “inhibition of diene formation” value in assay [3] is reported as “approximately 50%”. Besides, the “LDL oxidation: oxidized fraction 27/28 of the chromatogram” value with native LDL is recorded as “oxidized fraction 27/28 disappears”. In the assay on rat brain homogenates [2], the “inhibition of spontaneous peroxidation” value is “approximately 50%”.

Take `CC(C)(Sc1cc(C(C)(C)C)c(O)c(C(C)(C)C)c1)Sc1cc(C(C)(C)C)c(O)c(C(C)(C)C)c1` [probucol, reference compound]: in the assay on rat brain homogenates [1], the “inhibition of induced peroxidation” value is given as 27%. For the same compound, the inhibition at 10 µM turned out to be 44% at lipoxygenase and 48% in the assay on Human red cells. In addition, the “inhibition of spontaneous peroxidation” value with rat brain homogenates [2] is given as 37%. In the case of `CC(C)(C)c1cc(C=CC(=O)c2ccc3[nH]c(=O)oc3c2)cc(C(C)(C)C)c1O` [Example 6, 6-(3',540-di-tert-butyl-4'-hydroxycinnamoyl)benzoxazolinone], the “inhibition of diene formation” value in assay [3] was “approximately 75%”.

As to `CC1C(=Cc2cc(C(C)(C)C)c(O)c(C(C)(C)C)c2)C(=O)c2cc3oc(=O)n(C)c3cc21` (stereo not drawn) [Example 27, 2,3-dihydro-3,5-dimethyl-6-(3',5'-di-tert-butyl-4'-hydroxybenzylidene)cyclopenta[f]benzoxazone-2,7-dione], the “LDL oxidation: oxidized fraction 27/28 of the chromatogram” value with native LDL is “oxidized fraction 27/28 disappears”. The same measure, in the same setting: under `CC1C(=Cc2cc(C(C)(C)C)c(O)c(C(C)(C)C)c2)C(=O)c2cc3c(cc21)oc(=O)n3C` (stereo not drawn) [Example 29, 2,3-dihydro-3,7-dimethyl-6-(3',5'-di-tert-butyl-4'-hydroxybenzylidene)cyclopenta[f]benzoxazole-2,5-dione] stands “oxidized fraction 27/28 disappears”. With `Cn1c(=O)oc2cc3c(cc21)CC(=Cc1cc(C(C)(C)C)c(O)c(C(C)(C)C)c1)C3=O` [Example 40, 2,3-dihydro-3-methyl-2,7-dioxo-6-(3',5'-di-tert-butyl-4'-hydroxybenzylidene)cyclopenta[f]benzoxazole-2,7-dione], the “inhibition of spontaneous peroxidation” value with rat brain homogenates [2] is recorded as “approximately 50%”.

On to `Cn1c(=O)oc2ccc(C(=O)C=Cc3cc(C(C)(C)C)c(O)c(C(C)(C)C)c3)cc21` [Example 1, 5-(3',5'-di-tert-butyl-4'-hydroxycinnamo-yl)-3-methylbenzoxazolinone], for which the inhibition at 10 µM on lipoxygenase is about 80%. For the compound vitamin E [reference compound], the “inhibition of induced peroxidation” value in the assay with rat brain homogenates [1] is 6%. Further, the “inhibition of spontaneous peroxidation” value in the assay on rat brain homogenates [2] is 18%. Take `CC(C)(C)c1cc(C=CC(=O)c2ccc3c(c2)OCC(=O)N3)cc(C(C)(C)C)c1O` [Example 7, 7-(3',54- -di-tert-butyl-4'-hydroxycinnamoyl)-1,4-benzoxazin-3-one]: the “inhibition of diene formation” value in assay [3] is “approximately 75%”. For the compound `Cn1c(=O)sc2cc(C(=O)C=Cc3cc(C(C)(C)C)c(O)c(C(C)(C)C)c3)ccc21` [Example 4, 6-(3',5'-di-tert-butyl-4'-hydroxycinnamoyl)-3-methylbenzothiazolinone], the “inhibition of induced peroxidation” value in the assay with rat brain homogenates [1] is on record as about 30%.
